Test results as given in patent US9115089B2, “Methyl/fluoro-pyridinyl-methoxy substituted pyridinone-pyridinyl compounds and fluoro-pyrimidinyl-methoxy substituted pyridinone-pyridinyl compounds” (CONFLUENCE LIFE SCIENCES, INC., priority 2013, dated 2015).
pIC50: −log10 of the molar value.

Key:
Type in all cases: cell-based
[1] = tested on: IL-1β production in human whole blood; assay: Endotoxin-induced IL-1β production from human whole blood; conditions: LPS 100 ng/ml, 3 hours, read-out: HWB IL-1β IC50
Description: (§1) Human whole blood (HWB; 25-45 ml) was collected from an NSAID-free donor into vacutainer collection tubes containing sodium heparin (10 ml, 158 USP units), pooled and rocked gently before being distributed into each well of a 96-well round bottom tissue culture plate ([…]). Compounds ([…]/well, concentration response) are added and mixed gently for 15-20 seconds using a disposable 96 polypropylene pin tool before the plates are incubated at 37° C./5% CO2 for 1 hour. The HWB is stimulated with LPS (100 ng/ml) in a final assay volume of […]. After 3 hours, the plates are spun at 240×g for 5 minutes to pellet the red cells. The plasma is carefully transferred to another 96-well round bottom plate and diluted 2-fold with assay media (DMEM containing 10% fetal bovine serum (FBS) plus antibiotics). Finally, the diluted plasma ([…]/well) is transferred to Meso Scale detection plates for determination of IL-1, IL-6 or TNFα.

[2] = tested on: IL-6 production in A549 cells; assay: IL-1-induced IL-6 production in A549 cells; conditions: Homo sapiens, 3 hours stimulation
Description: Adherent A549 cells (approximately 5 million per T75 cm^2 tissue culture flask) are grown in F-12K media containing 10% fetal bovine serum (FBS) plus antibiotics. The cells are trypsinized, washed and resuspended at 0.3 million per milliliter. A549 cells are then distributed into each well of a 96-well flat bottom tissue culture plate ([…]) and the 30,000 cells/well are allowed to recover, incubated, overnight. On the day of the assay fresh media ([…]) is added to the plates followed by the addition of compound ([…]/well, concentration response) for 1 hour. […] After 3 hours, cultured media ([…]/well) is transferred from the assay plate to a Meso Scale custom coated detection plate for determination of IL-6 levels. […] Read buffer ([…]/well, MSD 4× read buffer diluted 4-fold with dH2O) is added and the plate is read using the Meso Scale Sector Imager 6000. Upon electrical stimulation of the detection plate, co-reactants in the read buffer enhance an electrochemical reaction resulting in the release of energy in the form of light. This signal is captured by an internal CCD camera and quantitated. Viability of A549 cells is determined using an MTT assay. […] Isopropanol ([…]) is added to solubilize the resulting formazan crystals and the plate is read at 570 nm/650 nm using a Molecular Devices SpectraMax spectrophotometer.

[3] = tested on: TNFα production in U937 cells; assay: LPS-induced TNFα production in differentiated U937 cells; conditions: Homo sapiens, U-937, LPS 0.1 μg/mL for 4 hours
Description: Therefore, inhibition of the p38 MAPK pathway will lower the inflammatory response by decreasing biosynthesis of proinflammatory cytokines. […] Evaluation of the potency and efficacy of p38 inhibitors to block cytokine production is carried out using the human U937 cell line. The U937 human pre-monocytic cell line is obtained from the American Type Culture Collection (Rockville, Md.). These cells are differentiated to a monocytic/macrophage phenotype as described by Burnette (Burnette et al, (2009). SD0006: a potent, selective and orally available inhibitor of p38 kinase, Pharmacology 84(1):42-60). Differentiated U937 cells are seeded into 96-well tissue culture plates (200,000 cells/well) in complete media. After 24 hours, the cells are pretreated for 60 minutes in the presence or absence of compound and then stimulated with LPS (0.1 μg/mL) for 4 hours. Culture media are then collected for determination of TNFα, IL-6 or IL-1β levels by ELISA. Cytokine concentrations are extrapolated from recombinant protein standard curves using a four-parameter logistic model and solving for IC50 after iterating to the best least-squares fit.

[4] = tested on: TNFα production in human whole blood; assay: Endotoxin-induced TNFα production from human whole blood; conditions: LPS 100 ng/ml, 3 hours, read-out: HWB TNFα IC50
Description: as §1

[5] = tested on: IL-6 production in human whole blood; assay: Endotoxin-induced IL-6 production from human whole blood; conditions: LPS 100 ng/ml, 3 hours, read-out: HWB IL-6 IC50
Description: as §1

Q: How did the pIC50 [1] turn out when `Cc1cnc(-c2ccnc(C(C)(C)O)n2)cc1-n1c(C)cc(OCc2ncc(F)cc2F)c(Cl)c1=O` [Compound 49, 3-chloro-4-((3,5-difluoropyridin-2-yl)methoxy)-2′-(2-(2-hydroxypropan-2-yl)pyrimidin-4-yl)-5′,6-dimethyl-2H-[1,4′-bipyridin]-2-one] was run?
A: 8.22

Q: And the pIC50 [2]?
A: 8.74

Q: What about the pIC50 [3] of the same compound?
A: 8.80

Q: What about the pIC50 [4] of the same compound?
A: 7.89

Q: And the pIC50 [5]?
A: 7.46
